Results taken from US8012956B2, “Tropane compounds” (Exelixis, Inc., priority 2007, dated 2011).

target: HSP90 (Homo sapiens, UniProt P07900); test: HSP90 inhibition (HSP90 IC50); assay type: biochemical

IC50 | Compound
< 500 nM | CC(C)C(O)CC(=O)c1ccc(N2[C@@H]3CC[C@H]2C[C@@H](NC(=O)c2ccc(C(N)=O)c(NCC4CC4)c2)C3)nc1 (stereo partly drawn) [2-[(cyclopropylmethyl)amino]-N4-{8-[5-(3-hydroxy-4-methylpentanoyl)pyridin-2-yl]-8-azabicyclo[3.2.1]oct-3-endo-yl}benzene-1,4-dicarboxamide]
1000 to 2000 nM | CC(C)CC(=O)c1ccc(N2[C@@H]3CC[C@H]2C[C@@H](NC(=O)c2ccc(C(N)=O)c(NCC4CC4)c2)C3)nc1 [2-[(cyclopropylmethyl)amino]-N4-{8-[5-(3-methylbutanoyl)pyridin-2-yl]-8-azabicyclo[3.2.1]oct-3-endo-yl}benzene-1,4-dicarboxamide]
< 500 nM | NC(=O)c1ccc(C(=O)N[C@H]2C[C@H]3CC[C@@H](C2)N3c2ccc(C(=O)CCN3CCOCC3)cn2)cc1NCC1CC1 [2-[(cyclopropylmethyl)amino]-N4-{8-[5-(3-morpholin-4-ylpropanoyl)pyridin-2-yl]-8-azabicyclo[3.2.1]oct-3-endo-yl}benzene-1,4-dicarboxamide]
2000 to 10000 nM | NC(=O)c1ccc(C(=O)N[C@H]2C[C@H]3CC[C@@H](C2)N3c2ccc(C(=O)CCc3ccccc3)cn2)cc1NCC1CC1 [2-[(cyclopropylmethyl)amino]-N4-{8-[5-(3-phenylpropanoyl)pyridin-2-yl]-8-azabicyclo[3.2.1]oct-3-endo-yl}benzene-1,4-dicarboxamide]
< 500 nM | NC(=O)c1ccc(C(=O)N[C@H]2C[C@H]3CC[C@@H](C2)N3c2ccc(C(=O)CCC3CCNCC3)cn2)cc1NCC1CC1 [2-[(cyclopropylmethyl)amino]-N4-{8-[5-(3-piperidin-4-ylpropanoyl)pyridin-2-yl]-8-azabicyclo[3.2.1]oct-3-endo-yl}benzene-1,4-dicarboxamide]
< 500 nM | NC(=O)c1ccc(C(=O)N[C@H]2C[C@H]3CC[C@@H](C2)N3c2ccc(C(=O)CCN3CCCC3)cn2)cc1NCC1CC1 [2-[(cyclopropylmethyl)amino]-N4-{8-[5-(3-pyrrolidin-1-ylpropanoyl)pyridin-2-yl]-8-azabicyclo[3.2.1]oct-3-endo-yl}benzene-1,4-dicarboxamide]
2000 to 10000 nM | NC(=O)c1ccc(C(=O)N[C@H]2C[C@H]3CC[C@@H](C2)N3c2ccc(C(=O)CCC(F)(F)F)cn2)cc1NCC1CC1 [2-[(cyclopropylmethyl)amino]-N4-{8-[5-(4,4,4-trifluorobutanoyl)pyridin-2-yl]-8-azabicyclo[3.2.1]oct-3-endo-yl}benzene-1,4-dicarboxamide]
< 500 nM | CC(C)CCC(=O)c1ccc(N2[C@@H]3CC[C@H]2C[C@@H](NC(=O)c2ccc(C(N)=O)c(NCC4CC4)c2)C3)nc1 [2-[(cyclopropylmethyl)amino]-N4-{8-[5-(4-methylpentanoyl)pyridin-2-yl]-8-azabicyclo[3.2.1]oct-3-endo-yl}benzene-1,4-dicarboxamide]
< 500 nM | CN(C)CCC(=O)c1ccc(N2[C@@H]3CC[C@H]2C[C@@H](NC(=O)c2ccc(C(N)=O)c(NCC4CC4)c2)C3)nc1 [2-[(cyclopropylmethyl)amino]-N4-{8-[5-(N,N-dimethyl-beta-alanyl)pyridin-2-yl]-8-azabicyclo[3.2.1]oct-3-endo-yl}benzene-1,4-dicarboxamide]
2000 to 10000 nM | NC(=O)c1ccc(C(=O)N[C@H]2C[C@H]3CC[C@@H](C2)N3c2ccc(C(=O)CN3CCCCC3)cn2)cc1NCC1CC1 [2-[(cyclopropylmethyl)amino]-N4-{8-[5-(piperidin-1-ylacetyl)pyridin-2-yl]-8-azabicyclo[3.2.1]oct-3-endo-yl}benzene-1,4-dicarboxamide]
2000 to 10000 nM | NC(=O)c1ccc(C(=O)N[C@H]2C[C@H]3CC[C@@H](C2)N3c2ccc(C(=O)C(F)(F)F)cn2)cc1NCC1CC1 [2-[(cyclopropylmethyl)amino]-N4-{8-[5-(trifluoroacetyl)pyridin-2-yl]-8-azabicyclo[3.2.1]oct-3-endo-yl}benzene-1,4-dicarboxamide]

Second part, the molecule before the results:

Compound | IC50
CCC(CC)Nc1cc(C(=O)N[C@H]2C[C@H]3CC[C@@H](C2)N3c2ccc(C(=O)CCN3CCCCC3)cn2)ccc1C(N)=O [2-[(1-ethylpropyl)amino]-N4-{8-[5-(3-piperidin-1-ylpropanoyl)pyridin-2-yl]-8-azabicyclo[3.2.1]oct-3-endo-yl}benzene-1,4-dicarboxamide] | < 500 nM
CCC(CC)Nc1cc(C(=O)NC2CC3CCC(C2)N3c2ccc(C(=O)N[C@@H]3CCN(C(C)C)C3)cn2)ccc1C(N)=O (stereo partly drawn) [2-[(1-ethylpropyl)amino]-N4-{8-[5-({[(3R)-1-(1-methylethyl)pyrrolidin-3-yl]amino}carbonyl)pyridin-2-yl]-8-azabicyclo[3.2.1]oct-3-endo-yl}benzene-1,4-dicarboxamide] | < 500 nM
CCC(CC)Nc1cc(C(=O)NC2CC3CCC(C2)N3c2ccc(C(=O)N[C@@H]3CCN(CC)C3)cn2)ccc1C(N)=O (stereo partly drawn) [2-[(1-ethylpropyl)amino]-N4-{8-[5-({[(3R)-1-ethylpyrrolidin-3-yl]amino}carbonyl)pyridin-2-yl]-8-azabicyclo[3.2.1]oct-3-endo-yl}benzene-1,4-dicarboxamide] | < 500 nM
CCC(CC)Nc1cc(C(=O)NC2CC3CCC(C2)N3c2ccc(C(=O)N[C@H]3CCN(C(C)C)C3)cn2)ccc1C(N)=O (stereo partly drawn) [2-[(1-ethylpropyl)amino]-N4-{8-[5-({[(3S)-1-(1-methylethyl)pyrrolidin-3-yl]amino}carbonyl)pyridin-2-yl]-8-azabicyclo[3.2.1]oct-3-endo-yl}benzene-1,4-dicarboxamide] | < 500 nM
C[C@H](NC(=O)c1ccc(N2C3CCC2CC(NC(=O)c2ccc(C(N)=O)c(N[C@H]4CC[C@H](O)CC4)c2)C3)nc1)c1ccc(N2CCN(C)CC2)cc1 (stereo partly drawn) [2-[(4-hydroxycyclohexyl)amino]-N4-(8-{5-[({(1S)-1-[4-(4-methylpiperazin-1-yl)phenyl]ethyl}amino)carbonyl]pyridin-2-yl}-8-azabicyclo[3.2.1]oct-3-endo-yl)benzene-1,4-dicarboxamide] | < 500 nM
CC(C)N1CC[C@@H](NC(=O)c2ccc(N3C4CCC3CC(NC(=O)c3ccc(C(N)=O)c(N[C@H]5CC[C@H](O)CC5)c3)C4)nc2)C1 (stereo partly drawn) [2-[(4-trans-hydroxycyclohexyl)amino]-N4-{8-[5-({[1-(1-methylethyl)pyrrolidin-3-yl]amino}carbonyl)pyridin-2-yl]-8-azabicyclo[3.2.1]oct-3-endo-yl}benzene-1,4-dicarboxamide] | < 500 nM
NC(=O)c1ccc(C(=O)N[C@H]2C[C@H]3CC[C@@H](C2)N3c2ccc(C(=O)CCNc3ccc(F)cc3)cn2)cc1NCC1CC1 [2-[(cyclopropylmethyl)amino]-N4-(8-{5-(N-(4-fluorophenyl)-beta-alanyl]pyridin-2-yl}-8-azabicyclo[3.2.1]oct-3-endo-yl)benzene-1,4-dicarboxamide] | 2000 to 10000 nM
CN1CCC(CCC(=O)c2ccc(N3[C@@H]4CC[C@H]3C[C@@H](NC(=O)c3ccc(C(N)=O)c(NCC5CC5)c3)C4)nc2)CC1 [2-[(cyclopropylmethyl)amino]-N4-(8-{5-[3-(1-methylpiperidin-4-yl)propanoyl]pyridin-2-yl}-8-azabicyclo[3.2.1]oct-3-endo-yl)benzene-1,4-dicarboxamide] | < 500 nM
CN1CCN(CCC(=O)c2ccc(N3[C@@H]4CC[C@H]3C[C@@H](NC(=O)c3ccc(C(N)=O)c(NCC5CC5)c3)C4)nc2)CC1 [2-[(cyclopropylmethyl)amino]-N4-(8-{5-[3-(4-methylpiperazin-1-yl)propanoyl]pyridin-2-yl}-8-azabicyclo[3.2.1]oct-3-endo-yl)benzene-1,4-dicarboxamide] | < 500 nM
NC(=O)c1ccc(C(=O)N[C@H]2C[C@H]3CC[C@@H](C2)N3c2ccc(C(=O)CCN3CCN(c4ccccc4)CC3)cn2)cc1NCC1CC1 [2-[(cyclopropylmethyl)amino]-N4-(8-{5-[3-(4-phenylpiperazin-1-yl)propanoyl]pyridin-2-yl}-8-azabicyclo[3.2.1]oct-3-endo-yl)benzene-1,4-dicarboxamide] | 500 to 999 nM
CCOCCC(=O)c1ccc(N2[C@@H]3CC[C@H]2C[C@@H](NC(=O)c2ccc(C(N)=O)c(NCC4CC4)c2)C3)nc1 [2-[(cyclopropylmethyl)amino]-N4-(8-{5-[3-(ethyloxy)propanoyl]pyridin-2-yl}-8-azabicyclo[3.2.1]oct-3-endo-yl)benzene-1,4-dicarboxamide] | < 500 nM
COCCC(=O)c1ccc(N2[C@@H]3CC[C@H]2C[C@@H](NC(=O)c2ccc(C(N)=O)c(NCC4CC4)c2)C3)nc1 [2-[(cyclopropylmethyl)amino]-N4-(8-{5-[3-(methyloxy)propanoyl]pyridin-2-yl}-8-azabicyclo[3.2.1]oct-3-endo-yl)benzene-1,4-dicarboxamide] | < 500 nM
C[C@H](NC(=O)c1ccc(N2C3CCC2CC(NC(=O)c2ccc(C(N)=O)c(NCC4CC4)c2)C3)nc1)c1ccc(N2CCN(C)CC2)cc1 (stereo partly drawn) [2-[(cyclopropylmethyl)amino]-N4-(8-{5-[({(1S)-1-[4-(4-methylpiperazin-1-yl)phenyl]ethyl}amino)carbonyl]pyridin-2-yl}-8-azabicyclo[3.2.1]oct-3-endo-yl)benzene-1,4-dicarboxamide] | < 500 nM
CCC(=O)c1ccc(N2[C@@H]3CC[C@H]2C[C@@H](NC(=O)c2ccc(C(N)=O)c(NCC4CC4)c2)C3)nc1 [2-[(cyclopropylmethyl)amino]-N4-[8-(5-propanoylpyridin-2-yl)-8-azabicyclo[3.2.1]oct-3-endo-yl]benzene-1,4-dicarboxamide] | < 500 nM
CON(C)C(=O)c1ccc(N2[C@@H]3CC[C@H]2C[C@@H](NC(=O)c2ccc(C(N)=O)c(NCC4CC4)c2)C3)nc1 [2-[(cyclopropylmethyl)amino]-N4-[8-(5-{[methyl(methyloxy)amino]carbonyl}pyridin-2-yl)-8-azabicyclo[3.2.1]oct-3-endo-yl]benzene-1,4-dicarboxamide] | 1000 to 2000 nM
NC(=O)c1ccc(C(=O)N[C@H]2C[C@H]3CC[C@@H](C2)N3c2ccc(C(=O)CCN3CCCCC3)cn2)cc1NCC1CC1 [2-[(cyclopropylmethyl)amino]-N4-{8-(5-(3-piperidin-1-ylpropanoyl)pyridin-2-yl]-8-azabicyclo[3.2.1]oct-3-endo-yl}benzene-1,4-dicarboxamide] | < 500 nM
NC(=O)c1ccc(C(=O)NC2CC3CCC(C2)N3c2ccc(C(=O)CC(O)c3ccccc3)cn2)cc1NCC1CC1 (stereo not drawn) [2-[(cyclopropylmethyl)amino]-N4-{8-[5-(3-hydroxy-3-phenylpropanoyl)pyridin-2-yl]-8-azabicyclo[3.2.1]oct-3-endo-yl}benzene-1,4-dicarboxamide] | 500 to 999 nM
